The text below walks through data of ChEMBL document CHEMBL1201862, “PubChem BioAssay data set” (2004).

Some test systems named below: A498; EKVX; HCT-116; HCT-15; HOP-62; IGROV-1; K562; KM12; MDA-MB-231; OVCAR-5; RPMI-8226; RXF 393; SF-268; SF-539; SN12C; SNB-19; SR; SW-620; T47D; UACC-257.
Holding throughout (experiment): inhibition of tumour cell growth, NCI panel, 48 h

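Following 48 hours of exposure in 96-well plates, responses at five concentrations were used to interpolate endpoints linearly. Here, GI50 denotes the concentration required for 50% inhibition of growth.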 Calls of active or inactive are those of the source. No stated cut-off is given here; in the data, active = GI50 up to about 1.1 µM and inactive = higher.

Take `COC(=O)CN1Cc2cc(C)cc(c2O)CN(CC(=O)OC)Cc2cc(C)cc(c2O)CN(CC(=O)OC)Cc2cc(C)cc(c2O)CN(CC(=O)OC)Cc2cc(C)cc(c2O)C1`: the GI50 with A498 is 18.1 µM (inactive); with EKVX it was 9.06 µM (inactive); in the experiment with HCT-116, 11.1 µM (inactive); in the experiment with HCT-15 it was 14.6 µM; in the experiment on HOP-62 it was 9.51 µM (inactive); with IGROV-1, 19.7 µM (inactive). Further, the GI50 in the experiment with K562 was 21.8 µM (inactive); in the experiment with KM12, 32.6 µM (inactive); with MDA-MB-231 it was 26.7 µM (inactive); with OVCAR-5, 9.46 µM (inactive); with RPMI-8226, 39 µM (inactive); with RXF 393, 4.19 µM (inactive). For the same compound, the GI50 is 9.89 µM (inactive) with SF-268; 12.8 µM (inactive) with SF-539; 21.5 µM (inactive) in the experiment on SN12C; 16 µM (inactive) in the experiment with SNB-19; 6.04 µM (inactive) with SR; 14.3 µM (inactive) in the experiment on SW-620. Moreover, the GI50 in the experiment with T47D is 13.2 µM (inactive); in the experiment with UACC-257 it was 16.8 µM (inactive).
As for `S=C1N=C(Cl)/C(=C\c2ccco2)N1`, the GI50 in the experiment with A498 is > 100 µM (inactive); in the experiment with EKVX it was > 100 µM (inactive); with HCT-116, > 100 µM (inactive); in the experiment on HCT-15 it was greater than 100 µM; with HOP-62, > 100 µM (inactive); with IGROV-1 it was > 100 µM (inactive). For the same compound, the GI50 with K562, in the experiment on KM12, with MDA-MB-231, in the experiment on OVCAR-5, with RPMI-8226 and in the experiment on RXF 393 was > 100 µM (inactive) each time. The GI50 with SF-268 is > 100 µM (inactive); in the experiment with SF-539, > 100 µM (inactive); with SN12C, > 100 µM (inactive); in the experiment on SNB-19, > 100 µM (inactive); with SR it was > 79.6 µM (inactive); in the experiment on SW-620, > 100 µM (inactive). Also, the GI50 in the experiment on T47D and with UACC-257 was > 100 µM (inactive) in each case.
On to `O=C1CC(c2ccccc2)n2cccc21` (stereo not given), for which the GI50 in the experiment on A498 was > 100 µM (inactive); in the experiment on EKVX, > 100 µM (inactive); in the experiment with HCT-116, > 100 µM (inactive); with HCT-15, greater than 100 µM; in the experiment on HOP-62, > 100 µM (inactive); in the experiment with IGROV-1, > 100 µM (inactive). The GI50 in the experiment with K562, with KM12, in the experiment with MDA-MB-231, in the experiment with OVCAR-5, in the experiment on RPMI-8226 and with RXF 393 was > 100 µM (inactive) in each case. Moreover, the GI50 in the experiment with SF-268, in the experiment on SF-539, with SN12C, in the experiment with SNB-19, in the experiment on SR and in the experiment on SW-620 was > 100 µM (inactive) throughout. Besides, the GI50 in the experiment with T47D and in the experiment with UACC-257 was > 100 µM (inactive) in each case.
As to `O=C(CCCc1cccc2[nH]c3c(c12)CN(Cc1ccccc1)CC3)c1ccc(F)cc1`, the GI50 was > 100 µM (inactive) with A498; > 100 µM (inactive) with EKVX; 18.7 µM (inactive) in the experiment with HCT-116; 40.3 µM in the experiment with HCT-15; > 37.4 µM (inactive) in the experiment with HOP-62; > 100 µM (inactive) in the experiment on IGROV-1. The GI50 with K562 was 7.01 µM (inactive); in the experiment on KM12 it was 39.1 µM (inactive); with MDA-MB-231 it was > 40.7 µM (inactive); with OVCAR-5, > 48.1 µM (inactive); in the experiment with RPMI-8226, 12.8 µM (inactive); with RXF 393, > 29.9 µM (inactive). Also, the GI50 is > 100 µM (inactive) with SF-268; > 47.8 µM (inactive) in the experiment with SF-539; > 100 µM (inactive) in the experiment with SN12C; > 100 µM (inactive) with SNB-19; 13 µM (inactive) in the experiment with SR; 83.2 µM (inactive) in the experiment with SW-620. Moreover, the figures for the GI50 with T47D and in the experiment on UACC-257 were 15.6 µM (inactive) and 2.61 µM (inactive), respectively.
Consider `Cc1ccc(C(=O)/C=C2/Nc3ccc([N+](=O)[O-])cc3N/C2=C/C(=O)c2ccc(C)cc2)cc1`, for which the GI50 in the experiment with A498 was 44.7 µM (inactive); with EKVX, 61.4 µM (inactive); with HCT-116, > 100 µM (inactive); in the experiment on HCT-15 it was 90.8 µM; with HOP-62 it was 15.3 µM (inactive); in the experiment on IGROV-1, 42.5 µM (inactive). The GI50 is 85.5 µM (inactive) with K562; > 100 µM (inactive) in the experiment on KM12; 29.1 µM (inactive) in the experiment with MDA-MB-231; > 100 µM (inactive) in the experiment on OVCAR-5; > 100 µM (inactive) in the experiment with RPMI-8226; 36.6 µM (inactive) in the experiment with RXF 393. Also, the GI50 is 52.4 µM (inactive) in the experiment on SF-268; 52.8 µM (inactive) in the experiment with SF-539; > 100 µM (inactive) in the experiment with SN12C; 43.8 µM (inactive) in the experiment with SNB-19; 54.2 µM (inactive) with SR; > 100 µM (inactive) with SW-620. The GI50 in the experiment with T47D and with UACC-257 was > 100 µM (inactive) throughout.
Turning to `NCCNS(=O)(=O)c1ccc(N)cc1`, the GI50 is > 100 µM (inactive) with A498; > 100 µM (inactive) with EKVX; > 100 µM (inactive) in the experiment with HCT-116; greater than 100 µM in the experiment on HCT-15; > 100 µM (inactive) in the experiment with HOP-62; > 100 µM (inactive) in the experiment on IGROV-1. Further, the GI50 in the experiment on K562, with KM12, with MDA-MB-231, with OVCAR-5, with RPMI-8226 and in the experiment on RXF 393 was > 100 µM (inactive) in each case. The GI50 in the experiment on SF-268 is > 100 µM (inactive); in the experiment on SF-539, 49.1 µM (inactive); in the experiment on SN12C, > 100 µM (inactive); in the experiment on SNB-19, > 100 µM (inactive); with SR it was 41.4 µM (inactive); in the experiment with SW-620, > 100 µM (inactive). Moreover, the GI50 in the experiment with T47D and in the experiment on UACC-257 was > 100 µM (inactive) throughout.
With `CN(C)c1ccc(/N=N\c2cccc3ccoc23)cc1`, the GI50 is > 100 µM (inactive) in the experiment with A498; 26.9 µM (inactive) in the experiment on EKVX; 69.2 µM (inactive) in the experiment with HCT-116; 45.2 µM in the experiment on HCT-15; > 100 µM (inactive) in the experiment with HOP-62; > 70.3 µM (inactive) in the experiment with IGROV-1. Further, the GI50 is 44.8 µM (inactive) with K562; > 73.1 µM (inactive) in the experiment on KM12; > 76.9 µM (inactive) in the experiment on MDA-MB-231; > 100 µM (inactive) with OVCAR-5; 52.2 µM (inactive) with RPMI-8226; > 80.9 µM (inactive) with RXF 393. The GI50 in the experiment on SF-268 was > 100 µM (inactive); in the experiment with SF-539 it was > 100 µM (inactive); in the experiment with SN12C, > 75 µM (inactive); in the experiment on SNB-19, > 100 µM (inactive); in the experiment on SR, 23.3 µM (inactive); with SW-620, 50.8 µM (inactive). Also, the GI50 with T47D was 61.7 µM (inactive); in the experiment on UACC-257 it was > 60.7 µM (inactive).
`O=C(Oc1ccccc1)N1c2ccccc2[C@@]23O[C@]24CCC[C@H]3C#C/C=C\C#C[C@H]14`: the GI50 in the experiment with A498 was 14.3 µM (inactive); with EKVX, 14.9 µM (inactive); in the experiment on HCT-116 it was 11.4 µM (inactive); in the experiment with HCT-15 it was 13.2 µM; in the experiment with HOP-62, 12.9 µM (inactive); in the experiment with IGROV-1, 12.4 µM (inactive). For the same compound, the GI50 with K562 is 15.6 µM (inactive); in the experiment on KM12, 13.6 µM (inactive); with MDA-MB-231, 12.3 µM (inactive); in the experiment on OVCAR-5, 11.8 µM (inactive); in the experiment on RPMI-8226, 2.82 µM (inactive); in the experiment with RXF 393, 10.1 µM (inactive). Besides, the GI50 in the experiment with SF-268 was 13.6 µM (inactive); in the experiment with SF-539 it was 20.4 µM (inactive); with SN12C, 13.7 µM (inactive); in the experiment with SNB-19, 15.7 µM (inactive); in the experiment with SR, 10.4 µM (inactive); in the experiment with SW-620, 11.4 µM (inactive). Besides, the GI50 in the experiment on T47D was 6.5 µM (inactive); in the experiment on UACC-257, 14.9 µM (inactive).
As to `CN(C)c1ccc(C(C#N)N2CCCN(C(C#N)c3ccc(N(C)C)cc3)C2c2ccc(N(C)C)cc2)cc1` (stereo not given), the GI50 is > 100 µM (inactive) with A498; > 100 µM (inactive) with EKVX; > 100 µM (inactive) in the experiment on HCT-116; greater than 100 µM in the experiment with HCT-15; > 100 µM (inactive) in the experiment on HOP-62; > 100 µM (inactive) in the experiment on IGROV-1. Besides, the GI50 in the experiment on K562, with KM12, in the experiment with MDA-MB-231, in the experiment on OVCAR-5, with RPMI-8226 and in the experiment on RXF 393 was > 100 µM (inactive) in each case. Further, the GI50 with SF-268, with SF-539, with SN12C, with SNB-19, in the experiment with SR and with SW-620 was > 100 µM (inactive) each time. Also, the GI50 in the experiment on T47D and with UACC-257 was > 100 µM (inactive) in each case.
Consider `Cc1ccc(S(=O)(=O)OC2CN3CCC2CC3)cc1` (stereo not given), for which the GI50 in the experiment on A498 was > 100 µM (inactive); in the experiment with EKVX, > 100 µM (inactive); in the experiment with HCT-116, > 100 µM (inactive); with HCT-15, greater than 100 µM; in the experiment on HOP-62 it was > 100 µM (inactive); in the experiment with IGROV-1, > 100 µM (inactive). The GI50 with K562, in the experiment with KM12, in the experiment with MDA-MB-231, in the experiment with OVCAR-5, in the experiment with RPMI-8226 and with RXF 393 was > 100 µM (inactive) throughout. For the same compound, the GI50 in the experiment with SF-268, in the experiment with SF-539, with SN12C, in the experiment with SNB-19, with SR and in the experiment with SW-620 was > 100 µM (inactive) throughout. In addition, the GI50 in the experiment with T47D and in the experiment with UACC-257 was > 100 µM (inactive) throughout.
